Measured values from US20120029054A1, “RNA Interference Mediated Inhibition of GATA Binding Protein 3 (GATA3) Gene Expression Using Short Intefering Nucleic Acid (siNA)” (Merck Sharp & Dohme Corp., priority 2009, published 2012).

System: GATA3 protein
Experiment: GATA3 Western Blot in transfected MCF7 cells (6-well plate)
Format: cell-based, human
Conditions: 30 nM, 48 hours, average band ratio ± S.D.
Description: MCF7 cells were plated in 6-well plates at final counts of 70,000 cells/well in 2 ml of complete growth media. Transfection was performed using 2.5 uL of RNAiMax per well. Final concentration of siNAs was 30 nM (screen) and 30, 0.3, and 0.003 nM (dose response study). Protein lysates were harvested 24, 48, and 72 hours post-transfection (screen) and 72 hours post-transfection (dose response study). Protein lysates were prepared using Cell Disruption Buffer from the PARIS kit (Ambion, cat #1921) according to manufacturer's instructions. Protein concentration was measured using a Bradford Quick Start Kit (Bio-Rad, cat#500-0205).
The protein source for the Western Blot experiments were from transfection of MCF7 cells in a 6 well plate, as described above.
Protein samples were diluted 1:1 in 2× Laemmli buffer with 5% β-mercapto-ethanol and incubated at 95° C. for 5 minutes. 20-40 ug of protein was loaded in each lane of 10% Tris-HCl gel. One lane was designated for MagicMark Protein Standard (Invitrogen # LC5602). The gel was run at 100V for approximately 2 hours. Protein was transferred to a PVDF membrane at 100V for 60 minutes. Once the transfer was finished, the membrane was blocked in 1% Casein in PBS (BioRad Cat#161-0783) for 1 hour on a plate rocker at room temperature followed by the overnight incubation at 4° C. with mouse monoclonal anti-GATA3 primary antibody (Santa Cruz Biotechnology, cat# HG3-31) diluted 1:500 in 1% Casein in PBS. On the next day, the blot was washed 4×5 minutes in PBST (0.1% Tween-20 in PBS) solution and incubated for 30 minutes at room temperature with goat anti-mouse secondary antibody (Pierce Biotechnology, cat#3 31430) diluted 1:20,000 in 1% Casein. […]
The protein bands were quantified by computing their density which is defined by the ratio between the total intensity of all pixels and the area of the rectangle drawn around each band (intensity/mm^2). The density was calculated by the BioRad software.
The level of protein was quantified using the Bio-Rad VersaDoc Imager according to the protocols of that piece of equipment. […]

Substance: 30263-DC: GATA3 siNA duplex, site 817: sense B cGccucuGcuucAuGGAuc TTB (SEQ 79), antisense GAUccAuGAAGcAGAGGcGUU (SEQ 80) (sense CGCCUCUGCUUCAUGGAUCTT; antisense GAUCCAUGAAGCAGAGGCGUU; chemistry not fully specified)
- Density (GATA3)/Density (α-Tubulin): 0.016 ± 0.0003
